# Results taken from paper PMC11273936, “The Antimicrobial Peptide Capitellacin: Chemical Synthesis of Analogues to Probe the Role of Disulphide Bridges and Their Replacement with Vinyl Sulphides” (Antibiotics, 2024).
# Legend:
# [1] = system: E. coli ATCC 25922; assay: MIC assay, bacteria (CLSI broth microdilution); assay type: cell-based, Escherichia coli; conditions: Gram negative, CA-MHB, 37 °C with shaking, 18 h, ~5 x10^5 CFU/mL, triplicate, three biological replicates
# [2] = system: P. aeruginosa SVB-B9; assay: MIC assay, bacteria (CLSI broth microdilution); assay type: cell-based, Pseudomonas aeruginosa; conditions: Gram negative, CA-MHB, 37 °C with shaking, 18 h, ~5 x10^5 CFU/mL, triplicate, three biological replicates
# [3] = system: C. albicans SC5314; assay: MIC assay, fungus (CLSI broth microdilution); assay type: cell-based; conditions: Candida albicans, RPMI 1640, 35 °C, 48 h, 0.5 x 10^3 to 2.5 x 10^3 CFU/mL, triplicate, three independent assays, read-out: Minimum Inhibitory Concentrations, C. albicans SC5314 (reference strain)
# [4] = system: S. aureus ATCC 25913; assay: MIC assay, bacteria (CLSI broth microdilution); assay type: cell-based; conditions: Staphylococcus aureus, ATCC25913, Gram positive, CA-MHB, 37 °C with shaking, 18 h, ~5 x10^5 CFU/mL, triplicate, three biological replicates, read-out: Minimum Inhibitory Concentrations, S. aureus ATCC 25913
compound,measurement,setting,value
polymyxin B [PMB],"Minimum Inhibitory Concentrations, E. coli ATCC 25922",[1],0.125 µM
same,"Minimum Inhibitory Concentrations, P. aeruginosa SVB-B9 (type strain)",[2],0.125 µM
"C[C@@H]1[C@H](O)[C@@H](C)/C=C/C=C/C=C/C=C/C=C/C=C/C=C/[C@H](O[C@@H]2O[C@H](C)[C@@H](O)[C@H](N)[C@@H]2O)C[C@@H]2O[C@](O)(C[C@@H](O)C[C@@H](O)[C@H](O)CC[C@@H](O)C[C@@H](O)CC(=O)O[C@H]1C)C[C@H](O)[C@H]2C(=O)O [AMB, amphotericin B]",MIC,[3],1 µM
"CC1(C)S[C@@H]2[C@H](NC(=O)[C@H](N)c3ccc(O)cc3)C(=O)N2[C@H]1C(=O)O [AMX, amoxicillin]",MIC,[4],2 µM
